From patent publication US7202239B2, “Cyclohexylphenyl carboxamides tocolytic oxytocin receptor antagonists” (Wyeth, priority 2001, dated 2007)

Target: human V2 vasopressin receptor subtype (Homo sapiens, UniProt P30518)
Assay: Vasopressin binding in CHO cell membranes expressing human vasopressin V2 subtype receptors
Conditions: [3H]arginine vasopressin; for inhibition at 0.1 µM / V2 % inhibition at 100 nM: 100 nM
Excerpt: Vasopressin Binding in Chinese Hamster Ovary Cell Membranes Expressing Human Vasopressin V2 Subtype Receptors
Chinese Hamster Ovary (CHO) cells stably transfected with the human V2 subtype receptors were obtained from M. Thibonnier, Case Western Reserve University School of Medicine, Cleveland, Ohio.
A. Passaging and Amplification of Cells:
CHO cells transfected with the human vasopressin V2 subtype receptors obtained from M. Thibonnier (pZeoSV vector) are allowed to grow to confluency (approx. >90%) in T-150 flasks under sterile conditions, in a cell culture medium of F-12 Nutrient Mixture (HAM) with L-glutamine (Gibco Cat. # 11765-054) containing 15 mM HEPES (Gibco Cat. # 15630-080), 1% antibiotic/antimycotic (add 5 mL 100×, Gibco Cat. # 15240-062 per 500 mL F-12), 250 μg/mL Zeocin (add 1.25 mL of 100 mg/mL Invitrogen R-250-01 per 500 mL F-12) and 10% Fetal Bovine Serum (Qualified, heat inactivated, Gibco Cat. # 16140-063). The medium is removed by aspiration and the cells washed with 10 mL of Hank's Balanced Salt solution (Gibco Cat. # 14175-095). The salt solution is removed by aspiration and the cells trypsinized with 5 mL of trypsin-EDTA (0.05% trypsin, 0.53 mM EDTA-4Na, Gibco Cat. # 25300-070) for 1 min. The trypsin is removed by aspiration and the cells dislodged by tapping. Cell Culture medium (e.g. 30 mL for 1:30 split) is immediately added and mixed well to inactivate trypsin. 1 mL of detached cells is added to new culture flasks containing fresh Cell Culture medium (e.g. into 25 mL per T-150 flask), and mixed gently. The cells are incubated at 37° C. in 5% CO2. The medium is changed at 3 to 4 day interval (or as appropriate). The cells grow to confluency (approx. >75%–95%) within 7–8 days. All steps are done under sterile conditions. B. Membrane Preparation: The cells are washed twice gently with Hank's Balanced Salt solution (e.g. use 10 mL per T-150 flask). The excess solution is removed and the cells bathed for 15–30 min. in an enzyme-free Cell Dissociation Buffer (e.g. use 8 mL Hank's Based, Gibco Cat. # 13150-016 per T-150 flask) until cells are loosened. The contents are transferred to centrifuge tubes (50 mL) kept in an ice bath. All subsequent steps are done at 4° C. The tubes are centrifuged at 300× g for 15 min (1380 rpm on SORVAL, Model RT6000D, using the rotor for 50 mL tubes). The supernatant is discarded and the cells suspended in homogeneizing buffer(10 mM Tris-HCl containing 0.25 M sucrose and 1 mM EDTA, pH 7.4) ensuring that the volume of the buffer is about ten times the volume of the cell pellet. The cells are pooled into a centrifuge tube (50 mL) and homogenized with a Polytron at setting 6 for 10 sec. The homogenate is transferred into a Potter-Elvjehm homogeneizer and homogenized with 3 strokes. The homogenate is centrifuged at 1500×g for 60 min at 4° C. (3100 rpm using SORVAL, model RT6000D, using the rotor for 50 mL tubes). The pellet is discarded. The supernatant is centrifuged at 100,000×g for 60 min. at 4° C. (Beckman L8-80M ultracentrifuge; spin at 37,500 rpm with rotor type 70 Ti for 50 mL tubes; 38,000 rpm with type 80Ti for 15 mL tubes; or 35,800 rpm with rotor type 45Ti). The supernantant is discarded and the pellet suspended in 3 to 4 mL of Tris buffer (50 mM TRIS-HCl, pH 7.4). The protein content is estimated by the Bradford or Lowry method. The volume of the membrane suspension is adjusted with the membrane buffer (50 mM Tris-HCl containing 0.1% BSA and 0.1 mM PMSF) to give 3.0 mg/mL (or as appropriate) of protein. The membranes are aliquoted and stored at −70° C. C. Radioligand Binding Assay: In wells of a 96-well format microtiter plate, is added 90, 110 or 130 μL (to make up a final volume of 200 μL) of assay buffer containing 50 mM of Tris-HCl (pH 7.4), […], 1 mg % aprotinin, 1 mg % leupeptin, 2 mg % 1,10-phenanthroline, 10 mg % trypsin inhibitor, and 0.1 mM PMSF. The inhibitors are added on the day of the experiment. […]

Chain of human V2 vasopressin receptor subtype (P30518 whole entry): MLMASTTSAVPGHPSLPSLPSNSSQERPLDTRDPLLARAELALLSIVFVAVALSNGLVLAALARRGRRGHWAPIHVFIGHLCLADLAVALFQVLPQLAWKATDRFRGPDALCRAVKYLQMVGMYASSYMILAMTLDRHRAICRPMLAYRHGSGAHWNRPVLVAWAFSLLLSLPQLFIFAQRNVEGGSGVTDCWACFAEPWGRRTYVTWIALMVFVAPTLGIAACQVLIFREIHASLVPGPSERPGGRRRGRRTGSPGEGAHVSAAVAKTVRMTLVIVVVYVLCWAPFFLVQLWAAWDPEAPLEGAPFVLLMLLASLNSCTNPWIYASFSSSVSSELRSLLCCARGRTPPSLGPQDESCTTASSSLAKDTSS

inhibition at 0.1 µM [%] | Compound | further results
9 | Cc1ccccc1N1CCN(C(=O)c2ccc3n2Cc2ccccc2N(C(=O)c2ccc(C4CCCCC4)cc2)C3)CC1 [Example 27, [10-(4-Cyclohexyl-benzoyl)-10,11-dihydro-5H-pyrrolo[2,1-c][1,4]benzodiazepin-3-yl][4-(2-methylphenyl)-1-piperazinyl]-methanone] | –
– | O=C(c1ccc2n1Cc1ccccc1N(C(=O)c1ccc(C3CCCCC3)cc1)C2)N1CCN(c2ccccn2)CC1 [Example 28, [10-(4-Cyclohexyl-benzoyl)-10,11-dihydro-5H-pyrrolo[2,1-c][1,4]benzodiazepine 3-yl][4-(2-pyridinyl)-1-piperazinyl]-methanone] | IC50 (value in parentheses): > 1000 nM
8 | COc1ccc(NC(=O)c2ccc3n2Cc2ccccc2N(C(=O)c2ccc(C4CCCCC4)cc2)C3)cc1 [Example 29, 10-(4-Cyclohexyl-benzoyl)-10,11-dihydro-5H-pyrrolo[2,1-c][1,4]benzodiazepine-3-carboxylic acid (4-methoxy-phenyl)-amide] | –
15 | CN1CCCN(C(=O)c2ccc3n2Cc2ccccc2N(C(=O)c2ccc(C4CCCCC4)cc2)C3)CC1 [Example 30, [10-(4-Cyclohexyl-benzoyl)-10,11-dihydro-5H-pyrrolo[2,1-c][1,4]benzodiazepin-3-yl](4-methyl-[1,4]-diazepan-1-yl)-methanone] | –
– | O=C(C(=O)N1CCC(N2CCCCC2)CC1)c1ccc2n1Cc1ccccc1N(C(=O)c1ccc(C3CCCCC3)cc1)C2 [Example 31, 1-[1.4′]Bipiperidinyl-1′-yl-2-[10-(4-cyclohexyl-benzoyl)-10,11-dihydro-5H-pyrrolo[2,1-c][1,4]benzodiazepin-3-yl]-ethane-1,2-dione] | V2 % inhibition at 100 nM: 2%
– | CN1CCN(C(=O)C(=O)c2ccc3n2Cc2ccccc2N(C(=O)c2ccc(C4CCCCC4)cc2)C3)CC1 [Example 32, 1-[10-(4-Cyclohexyl-benzoyl)-10,11-dihydro-5H-pyrrolo[2,1-c][1,4]benzodiazepin-3-yl]-2-(4-methyl-1-piperazin-1-yl)-1,2-ethane-1,2-dione] | V2 % inhibition at 100 nM: 6%
14 | CN(C)CCCNC(=O)c1ccc2n1Cc1ccccc1N(C(=O)c1ccc(C3CCCCC3)cc1)C2 [Example 33, 10-(4-Cyclohexyl-benzoyl)-N-[3-(dimethylamino)propyl]-10,11-dihydro-5H-pyrrolo[2,1-c][1,4]benzodiazepine-3-carboxamide] | –
17 | CN(C)CCN(C)C(=O)c1ccc2n1Cc1ccccc1N(C(=O)c1ccc(C3CCCCC3)cc1)C2 [Example 34, 10-(4-Cyclohexyl-benzoyl)-N-[2-(dimethylamino)-ethyl]-N-methyl-10,11-dihydro-5H-pyrrolo[2,1-c][1,4]benzodiazepine-3-carboxamide] | –
16 | CN(C)CCCN(C)C(=O)c1ccc2n1Cc1ccccc1N(C(=O)c1ccc(C3CCCCC3)cc1)C2 [Example 35, 10-(4-Cyclohexyl-benzoyl)-N-[3-(dimethylamino)propyl]N-methyl-10,11-dihydro-5H-pyrrolo[2,1-c][1,4]benzodiazepine-3-carboxamide] | –
1 | O=C(NCCCn1ccnc1)c1ccc2n1Cc1ccccc1N(C(=O)c1ccc(C3CCCCC3)cc1)C2 [Example 36, 10-(4-Cyclohexyl-benzoyl)-N-[3-(1H-imidazol-1-yl)propyl]-10,11-dihydro-5H-pyrrolo[2,1-c][1,4]benzodiazepine-3-carboxamide] | –
8 | O=C(NCCN1CCCCC1)c1ccc2n1Cc1ccccc1N(C(=O)c1ccc(C3CCCCC3)cc1)C2 [Example 37, 10-(4-Cyclohexyl-benzoyl)-N-[2-(1-piperidinyl)ethyl]-10,11-dihydro-5H-pyrrolo[2,1-c][1,4]benzodiazepine-3-carboxamide] | –
1 | CN1CCCC1CCNC(=O)c1ccc2n1Cc1ccccc1N(C(=O)c1ccc(C3CCCCC3)cc1)C2 (stereo not drawn) [Example 38, 10-(4-Cyclohexyl-benzoyl)-N-[2-(1-methyl-2-pyrrolidinyl)ethyl]-10,11-dihydro-5H-pyrrolo[2,1-c][1,4]benzodiazepine-3-carboxamide] | –
13 | CN1CCC(N(C)C(=O)c2ccc3n2Cc2ccccc2N(C(=O)c2ccc(C4CCCCC4)cc2)C3)CC1 [Example 39, 10-(4-Cyclohexyl-benzoyl)-N-methyl-N-(1-methyl-4-piperidinyl)-10,11-dihydro-5H-pyrrolo[2,1-c][1,4]benzodiazepine-3-carboxamide] | –
-3 | CN1CCC(N(C)C(=O)c2ccc3n2Cc2ccccc2N(C(=O)c2ccc(C4CCCCC4)cc2)C3)C1 (stereo not drawn) [Example 40, 10-(4-Cyclohexyl-benzoyl)-N-methyl-N-(1-methyl-3-pyrrolidinyl)-10,11-dihydro-5H-pyrrolo[2,1-c][1,4]benzodiazepine-3-carboxamide] | –
6 | CN(C)CCN1CCN(C(=O)c2ccc3n2Cc2ccccc2N(C(=O)c2ccc(C4CCCCC4)cc2)C3)CC1 [Example 41, [10-(4-Cyclohexyl-benzoyl)-10,11-dihydro-5H-pyrrolo[2,1-c][1,4]benzodiazepin-3-yl]{4-[2-(dimethylamino)ethyl]-1-piperazinyl}methanone] | –
4 | O=C(c1ccc2n1Cc1ccccc1N(C(=O)c1ccc(C3CCCCC3)cc1)C2)N1CCN(CCN2CCOCC2)CC1 [Example 42, [10(4-Cyclohexyl-benzoyl)-10,11-dihydro-5H-pyrrolo[2,1-c][1,4]benzodiazepin-3-yl]{4-[2-(4-morpholinyl)ethyl]-1-piperazinyl}methanone] | –
8 | C=CCN1CCN(C(=O)c2ccc3n2Cc2ccccc2N(C(=O)c2ccc(C4CCCCC4)cc2)C3)CC1 [Example 43, (4-Allyl-1-piperazinyl)[10-(4-cyclohexyl-benzoyl)-10,11-dihydro-5H-pyrrolo[2,1-c][1,4]benzodiazepin-3-yl]methanone] | –
1 | CC(C)N1CCN(C(=O)c2ccc3n2Cc2ccccc2N(C(=O)c2ccc(C4CCCCC4)cc2)C3)CC1 [Example 44, [10-(4-Cyclohexyl-benzoyl)-10,11-dihydro-5H-pyrrolo[2,1-c][1,4]benzodiazepin-3-yl](4-isopropyl-1-piperazinyl)methanone] | –
10 | CN(C)CCCN1CCN(C(=O)c2ccc3n2Cc2ccccc2N(C(=O)c2ccc(C4CCCCC4)cc2)C3)CC1 [Example 45, [10-(4-Cyclohexyl-benzoyl)-10,11-dihydro-5H-pyrrolo[2,1-c][1,4]benzodiazepin-3-yl]{4-[3-(dimethylamino)propyl]-1-piperazinyl}methanone] | –
– | O=C(c1ccc(C2CCCCC2)cc1)N1Cc2ccc(C(=O)N3CCC[C@H]3CN3CCCC3)n2Cc2ccccc21 [Example 46, [10-(4-Cyclohexyl-benzoyl)-10,11-dihydro-5H-pyrrolo[2,1-c][1.4]benzodiazepin-3-yl][(2S)-2-(1-pyrrolidinylmethyl)pyrrolidinyl]methanone] | V2 % inhibition at 100 nM: 14%
– | CN(C)[C@@H]1CCN(C(=O)c2ccc3n2Cc2ccccc2N(C(=O)c2ccc(C4CCCCC4)cc2)C3)C1 [Example 47, [10-(4-Cyclohexyl-benzoyl)-10,11-dihydro-5H-pyrrolo[2,1-C][1,4]benzodiazepin-3-yl][(3R)-3-(dimethylamino)pyrrolidinyl]methanone] | V2 % inhibition at 100 nM: 0%
